Data: patent US11434490B2, “Fluorogen-binding RNA aptamers” (CENTRE NATIONAL DE LA RECHERCHE SCIENTIFIQUE, priority 2017, dated 2022)
Values joined by “and” are separate entries in the source; they are usually repeats but may differ in a detail not shown here. Equal values may be shown once. “Also recorded” adds a separate entry of the source.

B1: Mango II - A22U: Mango-II point mutant; SEQ ID NO: 6903 / 6905 (nucleic acid)
chain 1: GCGUACGAAGGAGAGGAGAGGUAGAGGAGAGUACGC
chain 2: GGCACGUACGAAGGAGAGGAGAGGUAGAGGAGAGUACGUGC
modifications: chemistry not given here

Experiments:
[1] = Formaldehyde resistance assay; format: physicochemical; conditions: in vitro, TO1-Biotin
Experimental: FIG. 15|Effect of formaldehyde on Mango fluorescence. […] In (b) RNA is incubated with the corresponding amounts of formaldehyde first for one hour, then TO1-Biotin is added. Data for each panel is normalized to RFU at the 0% formaldehyde, 0 min point.
RNA Mango aptamers were incubated with TO1-Biotin in WB buffer for at least one hour until equilibrium fluorescence was reached. […] Fluorescence was measured as a kinetic run at a rate of 2 readings per minute using a Varian Cary Eclipse Fluorescence Spectrophotometer, ex/em=510±2.5/535±5 nm.

[2] = Fluorescence enhancement of TO1-ME; format: biochemical; conditions: ligand TO1-ME
Experimental: (§1) The bandwidth for all measurements was 1.5 nm for all experiments. Measurements were performed in a 0.2 cm path length cuvette in a background of 20 mM MOPS pH 7.0, 150 mM KCl, 10 μM EDTA. Fluorescence readings were taken in the absence of RNA at a ligand concentration of 0.82 μM. A concentrated, annealed stock of RNA was then added to the cuvette resulting in a final concentration of 2 μM RNA and allowed to equilibrate for 1 minute prior to taking an emission reading. Fluorescence enhancement was determined by dividing the fluorescence signal of ligand in the presence of RNA by the fluorescence signal in the absence of RNA corrected for the background of the instrument.

[3] = Salt dependence of Mango/TO1-Biotin fluorescence: K+ titration; format: binding; conditions: 25 nM RNA, 50 nM TO1-Biotin, 10 mM Tris pH 7.2
Experimental: FIG. 10|Salt dependence of new Mango variants. Dependence of fluorescence of each Mango for (a) K^+, (b) Na^+ in place of K^+, and (c) Mg^2+ ions in a buffer containing 140 mM K^+. […] 10 mM Tris buffer (pH 7.2) was used in place of phosphate of the WB buffer to avoid monovalent counter ions. Color-coding is as follows: Black—Mango I, Blue—Mango II, Green—Mango III, Orange—Mango IV. Hill coefficients are fitted to dark points. Points in lighter shade have been excluded from the fit. Error bars are standard deviations of three replicates.

[4] = Fluorescence titration, binding affinity for TO1-ME; conditions: ligand TO1-ME
Excerpt: (§2) We determined the affinity and fluorescence enhancement of four compounds: TO1-OAc (TO1-acetate), TO1-ME (TO1-methylester), TO1-PA (TO1-propanylamide), TO1-PE (TO1-pentenoylester) (FIG. 42, Table 8 & 9). Binding affinity and fluorescence enhancement of TO1-OAc is drastically diminished, and nearly identical between the wild-type and A22U mutant. […] Further extension of the linker stabilizes the binding pocket by stacking on T3 but becomes sterically hindered by a bulky purine in position 22. The A22U mutation would limit steric clashes while preventing misfolding of the G-quadruplex core. Thus, the improved properties of the Mango-II A22U mutant may arise from improved packing of the linker of the fluorophore with an RNA with a homogeneous or predominant conformation.
(§3) Fluorescence readings were recorded using a Varian Cary Eclipse Spectrophotometer set to measure at the maximum excitation and emission wavelengths of the Mango II aptamer dye complex. Fluorescence titrations were performed in Mango selection buffer (WB: 140 mM KCl, 1 mM MgCl2, 10 mM NaH2PO4 pH 7.2, 0.05% Tween-20).

[5] = Fluorescence titration, binding affinity for TO1-OAc; conditions: ligand TO1-OAc
Excerpt: as §2, §3

[6] = Fluorescence titration, binding affinity for TO3-Biotin; conditions: ligand TO3-B (TO3-Biotin)
Excerpt: (§4) FIG. 2|RNA Mango I, II, III and IV core sequences and their properties. (a) Color coded alignment of RNA Mango I, II, III and IV. G residues in yellow are protected from DMS cleavage (data from panel d) when folded in the presence of fluorophore. Quadruplex stacks and their associated propeller sequences are numbered 1 through 4. The GAAA isolation motif of Mango I, together with two adenines essential for binding, are shown in green and red respectively. Purple shading represents a flanking stem region common for all four Mango aptamers. Schematic: A tertiary structure schematic of Mango I, showing tier 1, 2 and 3 of its quadruplex structure (T1, T2 and T3) and color-coded as in (a). […] Bottom: Top view of the Mango I core (PBD ID: 5V3F), showing the T3 tier of the quadruplex and relevant propeller residues, color coding matches the schematic and panel a. […] KD values are shown next to each titration. (c) Same as for panel b but using 20 nM TO3-Biotin. Data for panels b and c have been normalized such that Mango I has a maximum fluorescence of 1. Error bars are standard deviation of three replicates. (d) DMS chemical protection patterns for the four Mango aptamers. 3′ end-labelled RNA (terminal ^32pCp shown as a black asterisk) was subjected to DMS chemical modification followed by reduction by NaBH4 and aniline cleavage as described in the methods. […] Legend: T1—denatured T1 ladder; OH—partial alkaline hydrolysis ladder; (−) DMS—denatured reaction with ddH2O added in place of DMS; 80° C.
(§5) Fluorescence data was gathered using a Varian Cary Eclipse Spectrophotometer unless otherwise stated. […] Fluorescence was measured at the maximum excitation and emission wavelengths of each complex (FIG. 13).
Or to the following equation for TO3-Biotin and NMM experiments: F([RNA])=Fmax[RNA]/(KD+[RNA])+Funbound (Eq. 2) Fmax was determined using Eq. 1 or Eq. 2 as appropriate. Temperature Dependent Fluorescence and UV Melting Curves
as §3

[7] = Fluorescence enhancement of TO3-Biotin; format: biochemical; conditions: ligand TO3-B; 0.82 μM ligand, 2 μM RNA
Experimental: as §1

[8] = Fluorescence titration, binding affinity for TO1-Biotin; conditions: for Kd: ligand TO1-B (TO1-Biotin)
Excerpt: as §4, §5
Where F([RNA]) is the fluorescence as a function of RNA concentration [RNA], Fmax is the maximal fluorescence of the bound complex and Funbound the fluorescence of the unbound fluorophore. When the fluorescence of Funbound was undetectable, it was set to zero.
as §3

[9] = Fluorescence enhancement of TO1-PA; format: biochemical; conditions: ligand TO1-PA
Experimental: as §1

[10] = Temperature dependent fluorescence and UV melting; format: physicochemical
Experimental: FIG. 11|Temperature-dependent fluorescent and UV absorbance spectroscopy of new Mango variants. Line plots of temperature-dependent spectroscopy for Mango I (data obtained from previous work)^1, Mango II, Mango III, and Mango IV. […] Starting at 90° C., temperature was ramped down at a rate of 1° C./min to 20° C. (darker shade) and returned to 90° C. at a rate of 1° C./min (lighter shade).
Temperature dependence measurements were started at 90° C. decreasing at a rate of 1° C./min until 20° C., then returned at 1° C./min until 90° C. was reached. […] Temperature dependence of fluorescence and absorbance were measured using a Varian Cary Eclipse Fluorescence Spectrophotometer at excitation and emission peaks and a Varian Cary 100 Bio UV-visible spectrophotometer monitoring at 260 nm.

Molecule	resistance to formaldehyde [1]	FIE (fluorescence enhancement) [2]	Kd [3] [mM]	Hill Coefficients K^+ ([3]; * estimated from initial rise of fluorescence)	Kd [4] [µM]	Kd [5] [µM]	Kd [6]	FIE (fluorescence enhancement) [7]	TO1-Biotin binding affinity (in words) [8]	Kd [8] [µM]	FIE (fluorescence enhancement) [9]	thermostability [10]
Mango-II: minimal construct engineered from isolate R2-1; SEQ ID NO: 6902 GCGUACGAAGGAGAGGAGAGGAAGAGGAGAGUACGC (chemistry not given here)	substantially resistant to formaldehyde; also recorded: remarkably formaldehyde resistant	401 ± 6	39 ± 10	1.4 ± 0.2	0.00241 ± 0.00054	0.056 ± 0.002	0.0014 µM and ~0.0014 µM	61 ± 2	subnanomolar affinity	0.0011 ± 0.0003	493 ± 5	more thermostable than Mango-I
B1	–	302 ± 6	–	–	0.00481 ± 0.00102	0.043 ± 0.003	0.005 ± 0.0028 µM	46 ± 3	–	0.0009 ± 0.0004	275 ± 3	–
